The values that follow are results of earlier work, collected in patent publication US9439985B2, “Compositions for radiolabeling diethylenetriaminepentaacetic acid (DTPA)-dextran” (Navidea Biopharmaceuticals, Inc., priority 2009, dated 2016).

Data set [1] concerns mannose-binding glycoprotein receptors in macrophages and dendritic cells present in the sentinel node. Particulars: rabbit; Hoh et al.
Data set [2] has as its system mannose-terminated glycoprotein receptors. The note with it: in vitro; Vera et al.

For the substance 99mTc-DTPA-mannosyl-dextran, the biodistribution after injection result in data set [1] is “diffuses into lymph channels, flows to the sentinel node, and binds to mannose-binding glycoprotein receptors”.
In the case of DTPA-mannosyl-dextran, the “binding to mannose-terminated glycoprotein receptors” value in data set [2] is reported as “binds avidly”.
